Assay results: PubChem BioAssay AID330 (DTP/NCI, 2004)
Values joined by “and” are separate entries in the source; they are usually repeats but may differ in a detail not shown here. Identical values can stand only once. Inconclusive results and toxic doses are left out.

System: P388 leukemia ip, CD2F1 mice, survival T/C
Test: NCI In Vivo Anticancer Drug Screen. Data for tumor model P388 Leukemia (intraperitoneal) in CD2F1 (CDF1) mice
Conditions: endpoint: median survival time, higher = longer survival
Procedure, shortened: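 Mice carrying the transplanted tumor received test compound or vehicle. Survival was recorded in each group, and the value is the treated-group measurement divided by that of the vehicle-treated control group.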

[1] = dose: 60.0 mg/kg/injection, schedule: Q01DX005 (ip), vehicle: Klucel (hydroxypropylcellulose) (HPC)
[2] = dose: 120.0 mg/kg/injection, schedule: Q01DX005 (ip), vehicle: Klucel (hydroxypropylcellulose) (HPC)
[3] = dose: 240.0 mg/kg/injection, schedule: Q01DX005 (ip), vehicle: Klucel (hydroxypropylcellulose) (HPC)
[4] = dose: 100.0 mg/kg/injection, schedule: Q01DX009 (ip), vehicle: Klucel (hydroxypropylcellulose) (HPC)
[5] = dose: 200.0 mg/kg/injection, schedule: Q01DX009 (ip), vehicle: Klucel (hydroxypropylcellulose) (HPC)
[6] = dose: 12.5 mg/kg/injection, schedule: Q01DX009 (ip), vehicle: saline
[7] = dose: 25.0 mg/kg/injection, schedule: Q01DX009 (ip), vehicle: saline
[8] = dose: 50.0 mg/kg/injection, schedule: Q01DX009 (ip), vehicle: saline
[9] = dose: 50.0 mg/kg/injection, schedule: Q01DX005 (ip), vehicle: Klucel (hydroxypropylcellulose) (HPC)
[10] = dose: 100.0 mg/kg/injection, schedule: Q01DX005 (ip), vehicle: Klucel (hydroxypropylcellulose) (HPC)
[11] = dose: 200.0 mg/kg/injection, schedule: Q01DX005 (ip), vehicle: Klucel (hydroxypropylcellulose) (HPC)
[12] = dose: 60.0 mg/kg/injection, schedule: Q01DX005 (ip), vehicle: saline with Tween-80
[13] = dose: 120.0 mg/kg/injection, schedule: Q01DX005 (ip), vehicle: saline with Tween-80
[14] = dose: 240.0 mg/kg/injection, schedule: Q01DX005 (ip), vehicle: saline with Tween-80

SMILES: [Br][Sn]([Br])([CH2]c1ccccc1)[c]1ccccc1
- T/C (dose: 1.56 mg/kg/injection, schedule: Q04DX003 (ip), vehicle: saline): 101 % of control and 102 % of control
- T/C (dose: 3.12 mg/kg/injection, schedule: Q04DX003 (ip), vehicle: saline): 99 % of control and 102 % of control
- T/C (dose: 6.25 mg/kg/injection, schedule: Q04DX003 (ip), vehicle: saline with Tween-80): 118 % of control
- T/C (dose: 6.25 mg/kg/injection, schedule: Q04DX003 (ip), vehicle: saline): 105 % of control and 106 % of control
- T/C (dose: 12.5 mg/kg/injection, schedule: Q04DX003 (ip), vehicle: saline): 99 % of control and 104 % of control

SMILES: Clc1ccc(C(Nc2nncs2)Nc2nncs2)cc1Cl
- T/C [1]: 94 % of control
- T/C [2]: 96 % of control
- T/C [3]: 102 % of control

SMILES: CC(C)C(=O)N1CCCCCCN1C(=O)C(C)C
- T/C [4]: 107 % of control
- T/C [5]: 111 % of control

SMILES: CCOC(=O)C([NH-])C([NH-])C(=O)OCC.[Cl][Pt+2][Cl] (stereo not drawn)
- T/C (dose: 12.5 mg/kg/injection, schedule: Q04DX002 (ip), vehicle: saline with Tween-80): 163 % of control
- T/C (dose: 25.0 mg/kg/injection, schedule: Q04DX002 (ip), vehicle: saline with Tween-80): 164 % of control

SMILES: Cc1ccc(-c2csc3nc(C)c(CN4CCCCC4)c(=O)n23)cc1
- T/C (dose: 75.0 mg/kg/injection, schedule: Q04DX002 (ip), vehicle: Klucel (hydroxypropylcellulose) (HPC)): 113 % of control
- T/C (dose: 150.0 mg/kg/injection, schedule: Q04DX002 (ip), vehicle: Klucel (hydroxypropylcellulose) (HPC)): 103 % of control
- T/C (dose: 300.0 mg/kg/injection, schedule: Q04DX002 (ip), vehicle: Klucel (hydroxypropylcellulose) (HPC)): 113 % of control

SMILES: FC(F)(F)COP(OCC(F)(F)F)OCC(F)(F)F
- T/C (dose: 100.0 mg/kg/injection, schedule: Q04DX003 (ip), vehicle: saline with Tween-80): 118 % of control
- T/C (dose: 200.0 mg/kg/injection, schedule: Q04DX003 (ip), vehicle: saline with Tween-80): 102 % of control
- T/C (dose: 400.0 mg/kg/injection, schedule: Q04DX003 (ip), vehicle: saline with Tween-80): 104 % of control

SMILES: Brc1cc2c(cc1CC1NCCc3cc4c(cc31)OCO4)OCO2 (stereo not drawn)
- T/C (dose: 50.0 mg/kg/injection, schedule: Q01DX001 (ip), vehicle: saline + alcohol): 97 % of control
- T/C (dose: 100.0 mg/kg/injection, schedule: Q01DX001 (ip), vehicle: saline + alcohol): 100 % of control
- T/C (dose: 200.0 mg/kg/injection, schedule: Q01DX001 (ip), vehicle: saline + alcohol): 103 % of control

SMILES: CC[N+](CC)(CC)CC(=O)c1ccc(Br)cc1
- T/C [6]: 100 % of control
- T/C [7]: 104 % of control
- T/C [8]: 95 % of control

SMILES: CN(C)/N=C1\C(=O)Nc2c(Cl)cc(Cl)cc21
- T/C (dose: 50.0 mg/kg/injection, schedule: Q01DX009 (ip), vehicle: Klucel (hydroxypropylcellulose) (HPC)): 94 % of control
- T/C [4]: 94 % of control
- T/C [5]: 94 % of control

SMILES: NC(=O)C1=C(C(=O)O)CCC1
- T/C (dose: 25.0 mg/kg/injection, schedule: Q01DX009 (ip), vehicle: distilled water + Tween-80): 99 % of control
- T/C (dose: 50.0 mg/kg/injection, schedule: Q01DX009 (ip), vehicle: distilled water + Tween-80): 100 % of control
- T/C (dose: 100.0 mg/kg/injection, schedule: Q01DX009 (ip), vehicle: distilled water + Tween-80): 98 % of control
- T/C (dose: 200.0 mg/kg/injection, schedule: Q01DX009 (ip), vehicle: distilled water + Tween-80): 96 % of control
- T/C (dose: 400.0 mg/kg/injection, schedule: Q01DX009 (ip), vehicle: distilled water + Tween-80): 92 % of control

SMILES: O=C1c2c(O)cccc2C(Br)c2cccc(O)c21
- T/C [1]: 107 % of control
- T/C [2]: 114 % of control
- T/C [3]: 98 % of control

SMILES: Cc1ccccc1C1OC2=C(Nc3ccc(Cl)cc3N2)C1=O (stereo not drawn)
- T/C [1]: 101 % of control
- T/C [2]: 91 % of control
- T/C [3]: 101 % of control

SMILES: C[S+](C)CCCNC(=O)c1csc(-c2csc(-c3ccccc3)n2)n1
- T/C (dose: 6.25 mg/kg/injection, schedule: Q01DX005 (ip), vehicle: water): 100 % of control
- T/C (dose: 12.5 mg/kg/injection, schedule: Q01DX005 (ip), vehicle: water): 107 % of control
- T/C (dose: 25.0 mg/kg/injection, schedule: Q01DX005 (ip), vehicle: water): 106 % of control

SMILES: BrCCCOc1ccccc1Br
- T/C [9]: 101 % of control
- T/C [10]: 97 % of control
- T/C [11]: 105 % of control

SMILES: O=C(O)CSCSCC(=O)O
- T/C (dose: 100.0 mg/kg/injection, schedule: Q04DX003 (ip), vehicle: saline): 100 % of control
- T/C (dose: 200.0 mg/kg/injection, schedule: Q04DX003 (ip), vehicle: saline): 104 % of control

SMILES: CCOC(=O)c1cc2c(ccc3ccccc32)[nH]1
- T/C [12]: 97 % of control
- T/C [13]: 89 % of control

SMILES: CCCC1OC(/C=C/c2ccccc2)OCC1CC (stereo not drawn)
- T/C (dose: 100.0 mg/kg/injection, schedule: Q01DX009 (ip), vehicle: saline with Tween-80): 101 % of control and 108 % of control and 109 % of control
- T/C (dose: 200.0 mg/kg/injection, schedule: Q01DX009 (ip), vehicle: saline with Tween-80): 101 % of control and 116 % of control (2×)
- T/C (dose: 400.0 mg/kg/injection, schedule: Q01DX009 (ip), vehicle: saline with Tween-80): 116 % of control and 120 % of control

SMILES: O=S(=O)(Nc1ccccc1C(F)(F)F)c1ccc(F)cc1
- T/C [12]: 99 % of control
- T/C [13]: 100 % of control
- T/C [14]: 95 % of control

SMILES: Brc1ccc(-c2ccc3nnnn3n2)s1
- T/C [9]: 91 % of control
- T/C [10]: 95 % of control
- T/C [11]: 87 % of control

SMILES: COc1ccc(-c2cc(=O)c3c(O)cc(O)cc3o2)cc1Oc1ccc(-c2cc(=O)c3c(O)cc(O)cc3o2)cc1
- T/C [1]: 96 % of control
- T/C [2]: 96 % of control
- T/C [3]: 88 % of control

SMILES: NN1C(=O)c2ccc3c4c(ccc(c24)C1=O)CC3
- T/C (dose: 50.0 mg/kg/injection, schedule: Q01DX009 (ip), vehicle: suspension in saline): 91 % of control
- T/C (dose: 100.0 mg/kg/injection, schedule: Q01DX009 (ip), vehicle: suspension in saline): 102 % of control
- T/C (dose: 200.0 mg/kg/injection, schedule: Q01DX009 (ip), vehicle: suspension in saline): 88 % of control
- T/C (dose: 400.0 mg/kg/injection, schedule: Q01DX009 (ip), vehicle: suspension in saline): 99 % of control

SMILES: CCCCC1(C#Cc2ccccc2)Sc2ccccc2N1C (stereo not drawn)
- T/C [12]: 98 % of control
- T/C [13]: 101 % of control
- T/C [14]: 107 % of control

SMILES: ClCc1ccccc1CCl
- T/C (dose: 5.0 mg/kg/injection, schedule: Q04DX003 (ip), vehicle: saline with Tween-80): 106 % of control
- T/C (dose: 10.0 mg/kg/injection, schedule: Q04DX003 (ip), vehicle: saline with Tween-80): 94 % of control
- T/C (dose: 20.0 mg/kg/injection, schedule: Q04DX003 (ip), vehicle: saline with Tween-80): 100 % of control
- T/C (dose: 40.0 mg/kg/injection, schedule: Q04DX003 (ip), vehicle: saline with Tween-80): 117 % of control

SMILES: N=C(N)SCc1cccc(-c2nc3ccccc3c(=O)o2)c1
- T/C [8]: 102 % of control
- T/C (dose: 100.0 mg/kg/injection, schedule: Q01DX009 (ip), vehicle: saline): 113 % of control

SMILES: COP(=O)(CC(=O)CCCCCO[Si](C)(C)C(C)(C)C)OC
- T/C (dose: 60.0 mg/kg/injection, schedule: Q01DX005 (ip), vehicle: saline): 98 % of control
- T/C (dose: 120.0 mg/kg/injection, schedule: Q01DX005 (ip), vehicle: saline): 99 % of control
- T/C (dose: 240.0 mg/kg/injection, schedule: Q01DX005 (ip), vehicle: saline): 100 % of control

SMILES: COc1cc(NS(C)(=O)=O)ccc1Nc1c2ccccc2nc2c(C)cccc12
- T/C (dose: 1.25 mg/kg/injection, schedule: Q01DX009 (ip), vehicle: saline with Tween-80): 155 % of control
- T/C (dose: 2.5 mg/kg/injection, schedule: Q01DX009 (ip), vehicle: saline with Tween-80): 165 % of control
- T/C (dose: 5.0 mg/kg/injection, schedule: Q01DX009 (ip), vehicle: saline with Tween-80): 87 % of control
- T/C (dose: 6.25 mg/kg/injection, schedule: Q01DX009 (ip), vehicle: Klucel (hydroxypropylcellulose) (HPC)): 97 % of control

SMILES: Cc1cc(OC(=O)Nc2cc([N+](=O)[O-])ccc2C)c(Br)cc1Cl
- T/C [6]: 98 % of control
- T/C [7]: 93 % of control
- T/C (dose: 50.0 mg/kg/injection, schedule: Q01DX009 (ip), vehicle: saline with Tween-80): 117 % of control
- T/C [8]: 100 % of control

SMILES: C[Si](C)(C)CNC(=S)S
- T/C [12]: 113 % of control
- T/C [13]: 115 % of control
- T/C [14]: 112 % of control

SMILES: COc1cc2c(c(OC)c1O)-c1ccc(SC)c(=O)cc1C(NC(C)=O)CC2 (stereo not drawn)
- T/C (dose: 1.25 mg/kg/injection, schedule: Q01DX009 (ip), vehicle: saline): 117 % of control
